Assay results as given in patent publication US20040254162A1, “Oxazolidinone derivatives as antimicrobials” (priority 2001, published 2004).
Values joined by “and” are separate entries in the source; they are usually repeats but may differ in a detail not shown here. Equal entries are not always repeated.

Columns and labels:
[1] = test system: MRSA 1029/99 and MRSE 879/247; test: Inhibition of biofilm (slime) production; type: cell-based; conditions: trypticase soy broth with 2% glucose, overnight 37° C., safranin OD 544 nm
Method: To study the effect of Compound No. 16 on the inhibition of biofilm production, the following study was carried out. […] Bacterial suspensions (in triplicate) were exposed to doubling dilution of antibiotics and incubated overnight at 37° C. with constant shaking (100 rpm). Next day, after aspirating the medium, biofilm was stained with safranin (0.1%) for 1 hour at room temperature, washed with distilled water, tapped dried and stain extracted into 200 μl of 0.2M NaoH and OD measured at 544 nm. Relative inhibition was determined by using the formula: […]

[2] = test system: S. pneum AB 34; test: MIC, agar incorporation method; conditions: agar incorporation
[3] = test system: Porphyromonas asaccharolytica; test: Agar dilution MIC, anaerobes; type: cell-based; conditions: single isolate, anaerobic agar dilution
[4] = test system: Fusobacterium montiferum; test: Agar dilution MIC, anaerobes; type: cell-based; conditions: single isolates, anaerobic agar dilution
[5] = test system: P. acnes; test: Agar dilution MIC, anaerobes; type: cell-based; conditions: single isolates, anaerobic agar dilution
[6] = test system: Strep. pyog. ATCC 19615; test: MIC, agar incorporation method; conditions: agar incorporation
[7] = test system: Prevotella bivia; test: Agar dilution MIC, anaerobes; type: cell-based; conditions: single isolate, anaerobic agar dilution
[8] = test system: Ent. faecalis ATCC 29212; test: MIC, agar incorporation method; conditions: agar incorporation
[9] = test system: MRSA 33; test: MIC, agar incorporation method; conditions: agar incorporation
[10] = test system: Eubacterium leutum; test: Agar dilution MIC, anaerobes; type: cell-based; conditions: single isolates, anaerobic agar dilution
[11] = Changes in MIC under different conditions: agar MIC; type: cell-based; conditions: strain not given
[12] = test system: Peptostreptococcus tetradius; test: Agar dilution MIC, anaerobes; type: cell-based; conditions: single isolates, anaerobic agar dilution
[13] = test system: Mycobacterium tuberculosis
[14] = test system: VRE 6A (Ent. faecium 6A); test: MIC, agar incorporation method; conditions: agar incorporation
[15] = test system: Strep. pne. ATCC 6303; test: MIC, agar incorporation method; conditions: agar incorporation
[16] = test system: MRSE 879 adherent bacteria; test: Sintered glass adherent bacteria model; conditions: MRSE 879, sintered glass adherent bacteria model
[17] = test system: MRSE 879; test: Broth MIC, MRSE 879; type: cell-based; conditions: MRSE 879
[18] = test system: MRSA 15187; test: MIC, agar incorporation method; conditions: agar incorporation
[19] = test system: Peptostreptococcus asaccharolyticus; test: Agar dilution MIC, anaerobes; type: cell-based; conditions: single isolates, anaerobic agar dilution
[20] = test system: anaerobic bacteria; test: Agar dilution method for anaerobic bacteria, summary; type: cell-based; conditions: anaerobes
[21] = test system: Clostridium camis; test: Agar dilution MIC, anaerobes; type: cell-based; conditions: single isolates, anaerobic agar dilution
[22] = test system: Clostridium perfringens; test: microbe, parasite or virus in culture; type: cell-based; conditions: single isolates, anaerobic agar dilution
[23] = test system: Clostridium difficile; test: Agar dilution MIC, anaerobes; type: cell-based; conditions: single isolates, anaerobic agar dilution
[24] = test system: Bacteroides fragilis; test: Agar dilution MIC, anaerobes; type: cell-based; conditions: single isolates, anaerobic agar dilution
[25] = test system: Fusobacterium necrogenes; test: Agar dilution MIC, anaerobes; type: cell-based; conditions: single isolate, anaerobic agar dilution
[26] = Changes in MIC under different conditions: broth MIC; type: cell-based; conditions: strain not given
[27] = test system: S. aureus ATCC 25923; test: MIC, agar incorporation method; conditions: agar incorporation
[28] = test system: Porphyromonas gingivalis; test: Agar dilution MIC, anaerobes; type: cell-based; conditions: single isolate, anaerobic agar dilution
[29] = test system: Prevotella intermedia; test: Agar dilution MIC, anaerobes; type: cell-based; conditions: single isolates, anaerobic agar dilution
[30] = test system: Mycobacterium avium intracellulare; test: Agar dilution method, mycobacteria; type: cell-based

CC(=O)NC[C@H]1CN(c2ccc(N3CCN(Cc4ccc([N+](=O)[O-])o4)CC3)c(F)c2)C(=O)O1.Cl [Compound No. 16]
Formation of biofilm inhibition [1]: occurs at lower a concentration | MIC S. pneum AB 34 [2]: 1 µg/mL | MIC Porphyromonas asaccharolytica [3]: <=.008 μg/ml | MIC Fusobacterium montiferum [4]: 0.03 µg/mL | MIC P. acnes [5]: 1 µg/mL | MIC S. pyogenes 19615 [6]: 0.5 µg/mL | MIC Prevotella bivia [7]: 0.125 µg/mL | MIC E. faecalis 29212 [8]: 2 µg/mL | MIC MRSA 33 [9]: 4 µg/mL | MIC Eubacterium leutum [10]: <=.008 μg/ml | Agar MIC [11]: 2 µg/mL | MIC Peptostreptococcus tetradius [12]: <=.008 μg/ml | MIC50 ([13]; Middlebrook 7H10 agar, 21 days): 4 µg/mL | MIC90 ([13]; Middlebrook 7H10 agar, 21 days): 64 µg/mL | G.M. ([13]; geometric mean MIC): 5.44 µg/mL | MIC VRE 6A [14]: 4 µg/mL | MIC S. pneum 6303 [15]: 1 µg/mL | concentration which would kill adherent bacteria [16]: 2 µg/mL | broth MIC [17]: 0.5 µg/mL | MIC MRSA 15187 [18]: 4 µg/mL | MIC Peptostreptococcus asaccharolyticus [19]: <=.008 μg/ml | Geometric Mean [20]: 0.037 µg/mL | MIC Range [20]: 0.004 to 1 µg/mL | MIC50 ([20]; Wilkins Chalgren agar, 48 hour): 0.032 µg/mL | MIC90 ([20]; Wilkins Chalgren agar, 48 hour): 0.25 µg/mL | MIC Clostridium camis [21]: 0.03 µg/mL and 0.016 µg/mL | MIC Clostridium perfringens [22]: 0.03 µg/mL | MIC Clostridium difficile [23]: 0.03 µg/mL | MIC Bacteroides fragilis [24]: 0.03 µg/mL and 0.06 µg/mL | MIC Fusobacterium necrogenes [25]: <=.008 μg/ml | Broth MIC +50% Sheep serum ([26]; +50% sheep serum): 2 µg/mL | Broth MIC Normal MH broth ([26]; normal MH broth): 2 µg/mL | MIC S. aureus 25923 [27]: 2 µg/mL | MIC Porphyromonas gingivalis [28]: <=.008 μg/ml | MIC Prevotella intermedia [29]: 0.016 µg/mL | MIC50 ([30]; Middlebrook 7H10 agar, 21 days): 8 µg/mL | MIC90 ([30]; Middlebrook 7H10 agar, 21 days): 32 µg/mL | G.M. ([30]; geometric mean MIC): 8.52 µg/mL
